Earlier results in patent publication US8673971B2, “Derivatives of 4-nerolidylcatechol, pharmaceutical compositions comprising them and process for producing the same” (Instituto Nacional de Pesquisa de Amazonia INPA, priority 2007, dated 2014).

Assays:
[1] = tests based on co-oxidation of substrate (β-carotene, linoleic acid); greater than α-tocoferol

For `C=CC(C)(CCC=C(C)CCC=C(C)C)c1ccc(O)c(O)c1` (centres unmarked) [4-nerolidylcatechol], the “in vitro antioxidant activity relative to α-tocoferol” value [1] is listed as 20 times and the water solubility is listed as “low water solubility”.
